Legend:
[1] = tested on: MUC1 expression in MCF10A cells; assay: MUC1 expression by immunoblot of whole-cell lysates after stimulation; type: cell-based
Description: FIG. 2A is a pair of photographs of immunoblots depicting the induction of MUC1 expression following heregulin (HRG) treatment. MCF10A cells were cultured without (“0”) and with HRG (20 ng/mL) for 24 (“24”) and 48 (“48”) hours. Cells were harvested at the indicated time points and lysed for western blot analysis. Whole-cell lysates were subjected to sodium dodecyl sulfate polyacrylamide gel electrophoresis (SDS-PAGE) under reducing conditions and proteins were detected (immunoblotted, “IB”) using antibodies specific for MUC1-C and β-actin (top and bottom photographs, respectively). The relative positions (e.g., the molecular weights) of the proteins are reported in kilodaltons (kDa) and indicated to the left of each of the immunoblots (e.g., 25 kDa or 45 kDa). “HRG” indicates treatment with heregulin.
FIG. 2C is a photograph of an immunoblot depicting the induction of MUC1 expression following IL-6 treatment. MCF10A cells were treated without (“0”) and with IL-6 (20 ng/mL) and then cultured at 37° C. for 24 (“24”) and 48 (“48”) hours. Cells were harvested at the indicated time points and lysed for western blot analysis. Whole-cell lysates were subjected to SDS-PAGE under reducing conditions and proteins were detected (immunoblotted, “IB”) using antibodies specific for MUC1-C. The relative positions (e.g., the molecular weights) of the proteins are reported in kilodaltons (kDa) and indicated to the left of the immunoblot. “IL-6” indicates IL-6 treatment.
Heregulin treatment of cells results in (i) activation of ErbB2, ErbB3, and ErbB4 and (ii) induction of the formation of complexes between these receptors and MUC1. To assess if MUC1 is regulated by heregulin in normal cells, the induction of MUC1 expression by heregulin treatment was assessed in the immortalized, but non-cancer breast cell line MCF10A. […] As a control for loading, β-actin was detected using anti-β-actin (Sigma, St. Louis, Mo.). […]

[2] = target: GST-STAT3 (Homo sapiens, UniProt P40763); assay: In vitro GST pull-down binding assay; details: purified His-tagged MUC1-CD, GST as control, immunoblot
Chain of GST-STAT3 (P40763 whole entry): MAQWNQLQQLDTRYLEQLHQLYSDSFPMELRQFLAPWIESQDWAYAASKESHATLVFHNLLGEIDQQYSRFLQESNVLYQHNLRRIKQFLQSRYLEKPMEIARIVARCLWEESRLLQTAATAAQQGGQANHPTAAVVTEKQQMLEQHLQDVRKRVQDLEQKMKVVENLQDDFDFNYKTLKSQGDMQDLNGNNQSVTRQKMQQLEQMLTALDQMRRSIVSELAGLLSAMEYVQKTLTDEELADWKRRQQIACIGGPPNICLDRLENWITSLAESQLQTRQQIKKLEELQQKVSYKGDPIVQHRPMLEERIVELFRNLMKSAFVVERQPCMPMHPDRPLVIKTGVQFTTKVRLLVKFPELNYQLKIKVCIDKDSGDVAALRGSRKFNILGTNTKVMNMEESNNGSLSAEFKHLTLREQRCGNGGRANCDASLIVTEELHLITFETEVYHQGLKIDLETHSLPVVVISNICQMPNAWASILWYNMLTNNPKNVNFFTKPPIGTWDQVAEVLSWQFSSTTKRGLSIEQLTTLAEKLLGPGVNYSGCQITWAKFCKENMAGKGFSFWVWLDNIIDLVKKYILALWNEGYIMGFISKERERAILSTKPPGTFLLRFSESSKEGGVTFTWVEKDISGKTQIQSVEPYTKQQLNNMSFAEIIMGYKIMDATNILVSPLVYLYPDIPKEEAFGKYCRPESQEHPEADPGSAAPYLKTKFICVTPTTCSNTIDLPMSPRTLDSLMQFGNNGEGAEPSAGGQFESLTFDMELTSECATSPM
Description: The binding of MUC1 to HSF1 could be direct or indirect, for example, through a third protein. To determine if the interaction between MUC1 and HSF1 is a direct, physical interaction, in vitro binding assays was performed. GST- and GST-STAT3 polypeptides were incubated with purified His-tagged MUC1-CD (similar to GST-HSF1-His-MUC1 experiments described above). The protein mixtures were then incubated with glutathione beads, which bind to the GST proteins and associated binding partners if present. The glutathione bead adsorbates were washed and immunoblotted with antibodies specific for His tags or to MUC1-C (as described above).

For “IL-6: inflammatory cytokine IL-6 (R&D Systems) that activates STAT3 through the Janus kinases”, the MUC1 expression ([1]; 0.1% serum overnight, 20 ng/mL IL-6, expected result) was “induce both STAT3 phosphorylation (activation) and MUC1 expression” and the MUC1 expression ([1]; IL-6 20 ng/mL, 24 and 48 hours (FIG. 2C)) was “induces MUC1 expression”.

B1: HRG: heregulin (HRG) (Calbiochem-Novabiochem), ligand activating ErbB2, ErbB3 and ErbB4 (protein, listed as Homo sapiens)
chain: MEIYSPDMSEVAAERSSSPSTQLSADPSLDGLPAAEDMPEPQTEDGRTPGLVGLAVPCCACLEAERLRGCLNSEKICIVPILACLVSLCLCIAGLKWVFVDKIFEYDSPTHLDPGGLGQDPIISLDATAASAVWVSSEAYTSPVSRAQSESEVQVTVQGDKAVVSFEPSAAPTPKNRIFAFSFLPSTAPSFPSPTRNPEVRTPKSATQPQTTETNLQTAPKLSTSTSTTGTSHLVKCAEKEKTFCVNGGECFMVKDLSNPSRYLCKCPNEFTGDRCQNYVMASFYSTSTPFLSLPE
For B1, the MUC1 protein expression ([1]; 20 ng/mL HRG, anti-MUC1-C immunoblot (FIG. 2A)) was “increase in MUC1 protein expression”.

B2: His-tagged MUC1: purified His-tagged MUC1 cytoplasmic domain (MUC1-CD, SEQ ID NO:2) (protein, listed as Homo sapiens)
chain: CQCRRKNYGQLDIFPARDTYHPMSEYPTYHTHGRYVPPSSTDRSPYEKVSAGNGGSSLSYTNPAVAAASANL
modifications: His tag
With B2 the “binding to GST-STAT3 (glutathione bead adsorbates)” value [2] was “present in GST-STAT3 adsorbates but not GST-adsorbates”.

From patent US7972870B2, “Methods and compositions relating to the regulation of MUC1 by HSF1 and STAT3” (Dana-Farber Cancer Institute, Inc., priority 2007, dated 2011)
